Active and inactive are the calls of the source. Where a SMILES comes first, the peptide text is derived from it. The star is where a group is joined. Boc = CC(C)(C)OC(=O)*; OtBu = CC(C)(C)O*
Tests used:
[1] = biological target: T1, Heat shock factor protein 1 (Mus musculus, UniProt P38532); assay: HSF1 potentiators in luciferase reporter cells, confirmation, cell-based, NIH3T3, luminescence, dose retest (AID 435004); assay type: functional;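 note: stress induced by proteasome inhibitor MG132 added 30 min after compound; luciferase reporter driven by HSF1 response element in NIH3T3 cells; actives raise luminescence as potentiators of the MG132 stress response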
T1 sequence (P38532 whole entry): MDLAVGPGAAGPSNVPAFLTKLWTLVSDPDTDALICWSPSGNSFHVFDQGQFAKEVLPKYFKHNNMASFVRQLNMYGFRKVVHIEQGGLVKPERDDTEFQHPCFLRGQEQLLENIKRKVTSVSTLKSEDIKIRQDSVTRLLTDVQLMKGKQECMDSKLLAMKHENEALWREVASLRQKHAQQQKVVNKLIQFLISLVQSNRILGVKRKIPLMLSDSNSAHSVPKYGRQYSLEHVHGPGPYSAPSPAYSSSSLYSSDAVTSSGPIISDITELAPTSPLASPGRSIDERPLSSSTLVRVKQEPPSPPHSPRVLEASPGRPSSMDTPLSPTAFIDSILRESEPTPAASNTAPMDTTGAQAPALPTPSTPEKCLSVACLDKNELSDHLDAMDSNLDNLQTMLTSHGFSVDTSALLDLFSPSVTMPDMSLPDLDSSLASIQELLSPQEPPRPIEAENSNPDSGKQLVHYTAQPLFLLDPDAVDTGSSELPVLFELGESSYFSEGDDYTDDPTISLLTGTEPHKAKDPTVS

[2] = biological target: T2, Polyadenylate-binding protein 1 (Homo sapiens, UniProt P11940); assay: PABP1 MLLE–PAM2 interaction inhibitors, dose response, miRNA deadenylation inhibitor project, biochemical, fluorescence polarization, Cy5-PAM2 peptide, secondary (AID 602260); assay type: functional; conditions: read-out: IC50_Mean
T2 sequence (P11940 whole entry): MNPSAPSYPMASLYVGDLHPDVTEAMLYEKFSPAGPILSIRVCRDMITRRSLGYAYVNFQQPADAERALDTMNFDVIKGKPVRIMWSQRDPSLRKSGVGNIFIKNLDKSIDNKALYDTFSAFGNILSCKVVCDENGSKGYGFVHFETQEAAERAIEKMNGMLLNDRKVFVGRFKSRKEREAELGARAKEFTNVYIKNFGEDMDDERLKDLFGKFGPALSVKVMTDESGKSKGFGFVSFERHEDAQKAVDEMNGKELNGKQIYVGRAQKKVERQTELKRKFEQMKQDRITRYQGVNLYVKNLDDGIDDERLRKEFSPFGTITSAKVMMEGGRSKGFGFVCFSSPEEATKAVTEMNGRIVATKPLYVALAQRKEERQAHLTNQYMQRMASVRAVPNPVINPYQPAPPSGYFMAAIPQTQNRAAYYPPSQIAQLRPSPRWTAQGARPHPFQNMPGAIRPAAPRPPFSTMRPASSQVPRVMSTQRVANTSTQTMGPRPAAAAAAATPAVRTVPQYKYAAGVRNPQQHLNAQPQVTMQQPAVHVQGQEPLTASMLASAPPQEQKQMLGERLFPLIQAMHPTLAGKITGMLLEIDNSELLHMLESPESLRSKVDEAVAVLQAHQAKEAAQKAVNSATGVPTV

[3] = biological target: T2, Polyadenylate-binding protein 1; assay: PABP1 MLLE–PAM2 binding inhibitor potency, dose response, biochemical, fluorescence polarization, FITC-PAM2 peptide (AID 602259); assay type: functional; conditions: read-out: IC50_Mean
[4] = biological target: T3, Rac GTPase-activating protein 1 (Homo sapiens, UniProt Q9H0H5); assay: MgcRacGAP GTPase-activating activity inhibitors, confirmation, biochemical, ADP Hunter fluorescence, primary and confirmatory (AID 624330); assay type: functional
T3 sequence (Q9H0H5 whole entry): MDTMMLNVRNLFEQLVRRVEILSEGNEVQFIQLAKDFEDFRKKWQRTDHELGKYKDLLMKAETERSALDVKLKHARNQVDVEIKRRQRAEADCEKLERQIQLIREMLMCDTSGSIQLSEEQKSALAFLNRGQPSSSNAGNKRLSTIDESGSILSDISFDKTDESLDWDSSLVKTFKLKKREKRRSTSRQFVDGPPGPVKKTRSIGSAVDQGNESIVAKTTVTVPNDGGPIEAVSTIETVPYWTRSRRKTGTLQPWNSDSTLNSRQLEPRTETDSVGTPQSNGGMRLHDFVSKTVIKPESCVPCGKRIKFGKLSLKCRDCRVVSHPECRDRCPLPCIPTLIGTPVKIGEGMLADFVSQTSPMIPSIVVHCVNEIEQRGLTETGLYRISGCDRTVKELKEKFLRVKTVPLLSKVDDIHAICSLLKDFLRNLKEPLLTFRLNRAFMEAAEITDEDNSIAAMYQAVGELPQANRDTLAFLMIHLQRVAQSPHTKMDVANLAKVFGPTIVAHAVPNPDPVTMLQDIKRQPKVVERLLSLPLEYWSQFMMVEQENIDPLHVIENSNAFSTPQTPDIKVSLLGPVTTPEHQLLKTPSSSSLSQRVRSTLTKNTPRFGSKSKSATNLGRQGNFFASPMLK

INS1 = assay: beta cell apoptosis inhibitors, cytokine rescue, dose response, luminescence, retest (AID 449756); assay type: functional, cell-based; conditions: Rattus norvegicus;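 note: cell death triggered by IL-1 beta plus TNF-alpha plus IFN-gamma mixture; protective hits raise ATP signal compared with cytokine alone wells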
Cytochrome P450 3A4 = Cytochrome P450 3A4 (Homo sapiens, UniProt P08684);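 note: CYP3A4 tested as one member of a cytochrome P450 panel screen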
Cytochrome P450 3A4, sequence (P08684 whole entry): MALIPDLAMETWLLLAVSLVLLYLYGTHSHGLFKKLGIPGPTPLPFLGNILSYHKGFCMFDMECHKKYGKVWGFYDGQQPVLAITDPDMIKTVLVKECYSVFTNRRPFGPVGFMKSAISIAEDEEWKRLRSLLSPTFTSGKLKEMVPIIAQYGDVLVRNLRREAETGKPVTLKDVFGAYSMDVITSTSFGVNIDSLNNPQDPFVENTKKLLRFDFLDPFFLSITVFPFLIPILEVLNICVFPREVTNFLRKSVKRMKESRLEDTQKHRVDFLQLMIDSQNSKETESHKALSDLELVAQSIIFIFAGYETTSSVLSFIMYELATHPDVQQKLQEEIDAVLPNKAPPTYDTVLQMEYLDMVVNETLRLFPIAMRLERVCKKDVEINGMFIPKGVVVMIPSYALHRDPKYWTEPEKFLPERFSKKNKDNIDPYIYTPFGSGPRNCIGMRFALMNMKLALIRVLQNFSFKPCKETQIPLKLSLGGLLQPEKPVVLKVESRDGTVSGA

Cytochrome P450 2C19 = Cytochrome P450 2C19 (Homo sapiens, UniProt P33261); assay: Cytochrome panel assay with activity outcomes. Panel member name: p450-cyp2c19 Compounds with AC50 equal or less than 10 uM are considered active; assay type: functional; conditions: read-out: AC50
Cytochrome P450 2C19, sequence (P33261 whole entry): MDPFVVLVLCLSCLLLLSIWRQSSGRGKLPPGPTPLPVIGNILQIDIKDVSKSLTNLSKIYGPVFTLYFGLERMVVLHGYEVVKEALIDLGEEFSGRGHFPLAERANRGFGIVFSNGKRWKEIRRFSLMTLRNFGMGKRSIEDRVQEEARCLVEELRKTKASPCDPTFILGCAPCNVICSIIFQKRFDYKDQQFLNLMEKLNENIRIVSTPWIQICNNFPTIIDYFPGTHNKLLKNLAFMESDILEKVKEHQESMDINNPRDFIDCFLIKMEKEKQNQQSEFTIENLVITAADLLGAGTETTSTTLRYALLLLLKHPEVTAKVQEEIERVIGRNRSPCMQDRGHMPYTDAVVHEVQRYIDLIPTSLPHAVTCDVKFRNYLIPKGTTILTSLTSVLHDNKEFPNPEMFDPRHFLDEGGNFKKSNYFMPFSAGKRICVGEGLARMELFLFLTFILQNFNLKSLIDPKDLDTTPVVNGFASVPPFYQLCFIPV

Cytochrome P450 1A2 = biological target: T4, Cytochrome P450 1A2 (Homo sapiens, UniProt P05177);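 note: PubChem cytochrome P450 panel assay, CYP1A2 panel member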
T4 sequence (P05177 whole entry): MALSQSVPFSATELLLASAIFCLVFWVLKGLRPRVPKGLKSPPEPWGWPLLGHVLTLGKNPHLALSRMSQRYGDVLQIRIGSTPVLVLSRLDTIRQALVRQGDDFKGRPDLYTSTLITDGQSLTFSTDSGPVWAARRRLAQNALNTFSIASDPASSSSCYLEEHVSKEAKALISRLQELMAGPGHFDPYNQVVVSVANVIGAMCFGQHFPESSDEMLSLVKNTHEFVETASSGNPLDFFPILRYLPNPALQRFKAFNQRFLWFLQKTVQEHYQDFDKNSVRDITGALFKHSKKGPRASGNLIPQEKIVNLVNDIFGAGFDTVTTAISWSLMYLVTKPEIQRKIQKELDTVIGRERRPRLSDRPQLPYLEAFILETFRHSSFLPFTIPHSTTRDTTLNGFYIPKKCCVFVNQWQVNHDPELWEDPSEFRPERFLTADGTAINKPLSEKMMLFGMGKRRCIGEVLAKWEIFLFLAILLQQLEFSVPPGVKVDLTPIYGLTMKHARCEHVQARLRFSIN

[5] = test system: Streptococcus sp. 'group A'; assay: growth inhibition of control SK(-) GAS strain, dose response, counter-screen for streptokinase expression inhibitor project, luminescence, kanamycin, BacTiterGlo, confirmation (AID 1900); assay type: functional, organism-based
Streptokinase A = biological target: T5, Streptokinase A (Streptococcus pyogenes serotype M1, UniProt P10520); assay: S. pyogenes streptokinase expression inhibitors, potency, dose response, plasminogen activation absorbance, OD405 (AID 1914); assay type: functional, Streptococcus pyogenes M1 GAS;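 note: secreted streptokinase activity via plasminogen activation per viability signal from cell pellet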
T5 sequence (P10520 whole entry): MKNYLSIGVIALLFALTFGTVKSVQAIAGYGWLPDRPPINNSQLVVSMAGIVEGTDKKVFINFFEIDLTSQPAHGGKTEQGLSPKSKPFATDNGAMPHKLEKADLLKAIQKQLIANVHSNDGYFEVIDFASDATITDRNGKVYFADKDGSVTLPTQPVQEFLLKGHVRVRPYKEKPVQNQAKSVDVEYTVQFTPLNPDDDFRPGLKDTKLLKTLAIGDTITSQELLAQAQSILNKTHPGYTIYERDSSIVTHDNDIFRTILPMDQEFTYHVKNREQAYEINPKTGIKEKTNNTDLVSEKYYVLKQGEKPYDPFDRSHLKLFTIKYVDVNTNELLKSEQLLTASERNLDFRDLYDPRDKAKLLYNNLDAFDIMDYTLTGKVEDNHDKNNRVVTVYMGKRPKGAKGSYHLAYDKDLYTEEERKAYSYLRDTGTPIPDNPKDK

Streptococcus = assay: Group A Streptococcus viability loss, dose response, counter-screen for streptokinase expression inhibitor project, luminescence, BacTiterGlo (AID 1915); assay type: functional, organism-based;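 note: potency for reduction of bacterial viability or growth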
[6] = Luminescence Cell-Based Dose Retest to Confirm Inhibitors of Cancer Stem Cells. [Related pubchem assays (depositor defined):AID2717, AID2721]; assay type: functional; conditions: Homo sapiens

In the case of `N#CC(CO)(Cc1ccc(OC(F)F)cc1)c1nc2ccccc2[nH]1` (stereo not given), the EC50 [1] was > 260 µM (inactive).

In the case of `COc1ccc(CCNC(=O)c2sc(=S)n(C)c2N)cc1`, the IC50 [2] was > 66 µM (inactive) and the IC50 [3] was > 66 µM (inactive).

In the case of `O=C(Cc1ccc([N+](=O)[O-])cc1)N1N=C(C2CC2)CC1(O)C(F)(F)F` (stereo not given), the EC50 [1] was > 260 µM (inactive).

In the case of `COc1ccccc1NC(=O)Cc1csc(N=C(S)Nc2ccccc2)n1`, the IC50 [2] was > 66 µM (inactive) and the IC50 [3] was > 66 µM (inactive).

For `CCN(CC)C(=O)Oc1ccc(Br)cc1C(=O)Nc1ccc(F)cc1F`, the EC50 [1] was > 260 µM (inactive).

For `Cc1ccc(-c2cc(C(F)(F)F)c(C#N)c(SCC(=O)O)n2)cc1`, the EC50 [1] was > 260 µM (inconclusive).

For `CN(C(=O)CCN1C(=O)/C(=C/c2ccccc2F)SC1=S)C1CCS(=O)(=O)C1` (stereo not given), the IC50 [2] was > 66 µM (inactive) and the IC50 [3] was > 66 µM (inactive).

In the case of `Cn1c(SCc2ccccc2C#N)nc2ccccc2c1=O`, the EC50 [1] was > 260 µM (inactive).

In the case of `CC(C)[C@H](N[C@@H](C)c1ccccc1)c1c(O)ccc2ccccc12`, the IC50 [4] was 16.8 µM (active).

For `Cc1ccc(OC(=O)c2ccc(C)c(C)c2)cn1`, the EC50 [1] was > 260 µM (inactive).

In the case of `COc1ccc2cc(C(c3nnnn3C3CCCC3)N3CCc4ccccc4C3)c(O)nc2c1` (stereo not given), the IC50 [2] was > 66 µM (inactive) and the IC50 [3] was > 66 µM (inactive).

In the case of `CCOCCCN=C(S)N1CCN(Cc2ccc3c(c2)OCO3)CC1`, the IC50 [4] was 152 µM (active).

With `Nc1cc(Br)c(N)c(Br)c1` the IC50 [4] was 13.5 µM (active).

For `O=C(NC1CCCC1)c1cc(COc2ccc3ncccc3c2)on1`, the AC50 (INS1) was 3.29 µM (active).

For `Cc1cc(Cl)ccc1N=C(S)NC(C)(C)C`, the IC50 [2] was > 66 µM (inactive) and the IC50 [3] was > 66 µM (inactive).

In the case of `Cc1ccc(C(C)C)c(OCC(O)CN2CCc3ccccc3C2)c1` (stereo not given), the AC50 (INS1) was 7.17 µM (active).

With `O=[N+]([O-])c1ccc(N2CCCCCC2)c([N+](=O)[O-])c1` the EC50 [1] was > 260 µM (inactive).

For `Cn1c(=O)[nH]c(=O)c2c1nc(S)n2Cc1ccccc1`, the IC50 [4] was 26.9 µM (active).

With `CCOc1cc(NC(=O)c2ccc(OC)cc2)c(OCC)cc1N=C(S)Nc1ccccc1` the AC50 (Cytochrome P450 3A4) was 14.1 µM (inconclusive), the AC50 (Cytochrome P450 2C19) was 2.51 µM (inconclusive) and the AC50 (Cytochrome P450 1A2) was 7.08 µM (inconclusive).

In the case of `COc1cc(CN2CCC(C(=O)N3CCCC(C)C3)CC2)cc(Br)c1O` (stereo not given), the IC50 [4] was 191 µM (active).

In the case of `Cc1cc(C)nc(SCNC(=O)c2ccccc2)n1`, the IC50 [2] was > 66 µM (inactive) and the IC50 [3] was > 66 µM (inactive).

With `Cc1ccc2cc(C=C(C#N)C#N)c(Cl)nc2c1` the IC50 [2] was 44.8 µM (inactive) and the IC50 [3] was 28 µM (inactive).

For `Cc1nc(SCC(=O)c2ccccc2)c(C#N)c(-c2ccco2)c1C(=O)NCc1ccco1`, the EC50 [1] was 99.7 µM (active).

In the case of `COc1cc(-c2nnn(CC#N)n2)ccc1OCc1ccccc1`, the EC50 [1] was 90.9 µM (active).

In the case of `CC1SC(c2ccc(Cl)cc2)NC1=O` (stereo not given), the EC50 [1] was > 260 µM (inactive).

With `CCc1ccc(NC(=O)CSC2=C(C#N)C(c3ccc4c(c3)OCO4)CC(=O)N2)cc1` (stereo not given) the EC50 [1] was > 260 µM (inactive).

In the case of `CN(C)c1ccc(NC(=O)COC(=O)c2ccc3c(c2)OCO3)cc1`, the IC50 [4] was 63.3 µM (active).

In the case of `CC1CC(=O)N(c2ccc(Br)cc2)C(=O)C1`, the AC50 (INS1) was > 260 µM (inactive) and the EC50 [1] was > 260 µM (inactive).

With `O=C(CNS(=O)(=O)c1ccc(Br)s1)NCc1ccccc1` the EC50 [1] was > 260 µM (inactive).

For `O=C(O)CCCC(=O)Nc1ccc(C(=O)NCc2cccnc2)cc1`, the AC50 (INS1) was 2.39 µM (active).

With `Cc1nc(N)sc1-c1ccccc1` the IC50 [4] was 71.9 µM (active).

With `O=C(CCN1CCC2CCC(C2)C1)c1ccccc1` (stereo not given) the IC50 [2] was > 66 µM (inactive) and the IC50 [3] was > 66 µM (inactive).

In the case of `Cc1ccc(-c2ccc(/C=N/NC(=S)Nc3ccccc3)o2)cc1[N+](=O)[O-]`, the IC50 [2] was > 66 µM (inactive), the AC50 (Cytochrome P450 1A2) was 3.55 µM (inconclusive) and the IC50 [3] was > 66 µM (inactive).

With `C/C(=N\NC(=S)Nc1cccc(C)c1)c1cc2ccccc2o1` the EC50 [5] was 3.44 µM (active), the EC50 (Streptokinase A) was > 150 µM (not active) and the IC50 [2] was > 66 µM (inactive). For the same compound, the IC50 [3] was > 66 µM (inactive) and the EC50 (Streptococcus) was > 150 µM (not active).

For `Cc1cccc(NC2=C/C(=N/S(=O)(=O)c3cccs3)c3ccccc3C2=O)c1`, the AC50 (INS1) was 0.803 µM (active) and the AC50 [6] was 0.835 µM (active).

For `Cc1nnc(N/N=C/c2cc([N+](=O)[O-])c(N3CCC(C)CC3)cc2N2CCC(C)CC2)n1N`, the AC50 (INS1) was 2.92 µM (active).

With `COC(=O)C(Cc1ccc(O)cc1)NC(=O)C(CC(=O)OC(C)(C)C)NC(=O)OC(C)(C)C` (stereo not given) (Boc-Asp(OtBu)-Tyr-OMe; configuration not given here) the EC50 [1] was > 260 µM (inactive).
